# Measurements from publication PMC4207896, “Cytotoxic Benzophenanthridine and Furoquinoline Alkaloids from Zanthoxylum buesgenii (Rutaceae)” (Chemistry Central Journal, 2014).
# Like-named read-outs stand apart in the source and are kept apart here.
# Experiments:
# Format in all cases: cell-based
# [1] = tested on: CEM/ADR5000 leukemia cells; test: Resazurin reduction cytotoxicity assay, CEM/ADR5000; conditions: Homo sapiens, read-out: IC50 values
# Method: (§1) The resazurin reduction assay was performed to assess the cytotoxicity of compounds and doxorubicin as control drug towards various sensitive and drug-resistant cancer cell lines, including the CCRF-CEM and CEM/ADR5000 leukemia, MDA-MB231 breast cancer cells and its resistant subline MDA-MB231/BCRP, HCT116p53^+/+ colon cancer cells and its resistant subline HCT116p53^−/−, U87MG glioblastoma cells and its resistant subline U87MG. ΔEGFR and HepG2 hepatocarcinoma cells and normal AML12 hepatocytes. The assay is based on the reduction of the indicator dye, resazurin, to the highly fluorescent resorufin by viable cells. […] Briefly, adherent cells were detached by treatment with 0.25% trypsin/EDTA (Invitrogen, Darmstadt Germany) and an aliquot of 1 × 10^4 cells was placed in each well of a 96-well cell culture plate (Thermo Scientific, Langenselbold, Germany) in a total volume of 200 μL. Cells were allowed to attach overnight and then were treated with different concentrations of compounds. For suspension cells, aliquots of 2 × 10^4 cells per well were seeded in 96-well-plates in a total volume of 100 μL. The studied compounds were immediately added in varying concentrations in an additional 100 μL of culture medium to obtain a total volume of 200 μL/well. After 72 h, resazurin (Sigma-Aldrich, Schnelldorf, Germany) (20 μL, 0.01% w/v) in distilled H2O was added to each well and the plates were incubated at 37°C for 4 h. Fluorescence was measured on an Infinite M2000 ProTM plate reader (Tecan, Crailsheim, Germany) using an excitation wavelength of 544 nm and an emission wavelength of 590 nm. Each assay was done at least twice with six replicates each. The viability was evaluated based on a comparison with untreated cells. IC50 values represent the compound concentrations required to inhibit 50% of cell proliferation and were calculated from a calibration curve by linear regression using Microsoft Excel.
# [2] = tested on: MDA-MB231 breast cancer cells; test: Resazurin reduction cytotoxicity assay, MDA-MB231; conditions: Homo sapiens, read-out: IC50 values
# Method: as §1
# [3] = tested on: normal AML12 hepatocytes; test: Resazurin reduction cytotoxicity assay, normal AML12 hepatocytes; conditions: Mus musculus, read-out: IC50 values
# Method: as §1
# [4] = tested on: MDA-MB231/BCRP cells; test: Resazurin reduction cytotoxicity assay, MDA-MB231/BCRP; conditions: MDA-MB-231/BCRP, 72 h, read-out: IC50 values
# Method: as §1
# [5] = tested on: nine tested cancer cell lines; test: Resazurin reduction cytotoxicity assay, panel of nine cancer cell lines; conditions: all nine cancer cell lines, 72 h, read-out: IC50 values towards all the nine tested cancer cell lines
# Method: as §1, with “The studied compounds were immediately added in varying concentrations in an additional 100 μL of culture medium to obtain a total volume of 200 μL/well. After 72 h, resazurin (Sigma-Aldrich, Schnelldorf, Germany) (20 μL, 0.01% w/v) in distilled H2O was added to each well and the plates were incubated at 37°C for 4 h.” left out, “Each assay was done at least twice with six replicates each.” left out, “IC50 values represent the compound concentrations required to inhibit 50% of cell proliferation and were calculated from a calibration curve by linear regression using Microsoft Excel.” left out
# [6] = tested on: U87MG. ΔEGFR cells; test: Resazurin reduction cytotoxicity assay, U87MG.ΔEGFR; conditions: Homo sapiens, U-87 MG, 72 h, read-out: IC50 values
# Method: as §1
# [7] = tested on: HepG2 hepatocarcinoma cells; test: Resazurin reduction cytotoxicity assay, HepG2; conditions: Homo sapiens, read-out: IC50 values
# Method: as §1
# [8] = tested on: HCT116 (p53+/+) colon cancer cells; test: Resazurin reduction cytotoxicity assay, HCT116 (p53+/+); conditions: Homo sapiens, read-out: IC50 values
# Method: as §1
# [9] = tested on: CCRF-CEM leukemia cells; test: Resazurin reduction cytotoxicity assay, CCRF-CEM; conditions: Homo sapiens, 72 h, read-out: IC50 values
# Method: as §1
# [10] = tested on: U87MG glioblastoma cells; test: Resazurin reduction cytotoxicity assay, U87MG; conditions: Homo sapiens, U-87 MG, 72 h, read-out: IC50 values
# Method: as §1
# [11] = tested on: HCT116 (p53-/-) colon cancer cells; test: Resazurin reduction cytotoxicity assay, HCT116 (p53-/-); conditions: Homo sapiens, read-out: IC50 values
# Method: as §1
# [12] = CEM/ADR5000 leukemia (resistant), resazurin assay, 72 h
# [13] = MDA-MB-231, MDA-MB231 breast cancer cells, resazurin assay, 72 h
# [14] = normal AML12 hepatocytes, resazurin assay, 72 h
# [15] = MDA-MB231/BCRP resistant subline, resazurin assay
# [16] = U87MG. ΔEGFR resistant subline, resazurin assay
# [17] = HepG2 hepatocarcinoma cells, resazurin assay, 72 h
# [18] = CCRF-CEM leukemia (sensitive), resazurin assay
# [19] = U87MG glioblastoma cells, resazurin assay
Structure (SMILES),"IC50 [1, 12] [µM]","IC50 [2, 13] [µM]","IC50 [3, 14] [µM]","IC50 [4, 15] [µM]","IC50 [6, 16] [µM]","IC50 [7, 17] [µM]","IC50 [9, 18] [µM]","IC50 [10, 19] [µM]","IC50 ([1]; ADR5000, 72 h) [µM]","IC50 ([2]; MDA-MB-231, 72 h) [µM]","IC50 ([3]; AML12, 72 h) [µM]",IC50 [4] [µM],IC50 [6] [µM],"IC50 ([7]; HepG2, 72 h) [µM]","IC50 ([8]; HCT-116, 72 h) [µM]",IC50 ([9]; CCRF-CEM) [µM],IC50 [10] [µM],"IC50 ([11]; HCT-116, 72 h) [µM]",further results
"COc1c(O)ccc2c1C(O)N(C)c1c-2ccc2cc3c(cc12)OCO3 (stereo not drawn) [Compound 1, 1-methoxy-12-methyl-12,13-dihydro-[1,3]dioxolo[4′,5′:4,5]benzo[1,2-c]phenanthridine-2,13-diol]",31.6 ± 3.48,30.1 ± 4.12,> 107,65 ± 5.37,61.8 ± 4.68,22.4 ± 1.97,0.24 ± 0.01,60.6 ± 7.29,–,–,–,–,–,–,–,–,–,–,"IC50 [5]: ≤ 65 µM; IC50 ([8]; HCT-116, HCT116 (p53+/+) colon cancer cells, resazurin assay, 72 h): 42.5 ± 3.22 µM; IC50 ([11]; HCT-116, HCT116 (p53-/-) resistant subline, resazurin assay, 72 h): 62.3 ± 4.41 µM"
"COc1c(O)ccc2c1c[n+](C)c1c3cc4c(cc3ccc21)OCO4 [Compound 2, isofagaridine]",–,–,–,–,–,–,–,–,20.4 ± 2.16,41.4 ± 3.44,> 120,114 ± 9.82,115 ± 13.8,26.7 ± 3.15,87.1 ± 7.55,0.3 ± 0.04,105 ± 9.16,> 120,–
"COc1cccc2c1C(=O)c1c(O)c3c(c(O)c1C2=O)C[C@@](O)(C(=O)CO)C[C@@H]3O[C@H]1C[C@H](N)[C@H](O)[C@H](C)O1 [Doxorubicin, doxorubicin, reference compound]",195 ± 14.3,1.1 ± 0.28,> 73.6,7.83 ± 0.47,6.11 ± 0.57,3.83 ± 0.94,0.2 ± 0.06,1.06 ± 0.15,–,–,–,–,–,–,1.41 ± 0.29,–,–,4.06 ± 0.07,–
"COc1cc2nc3occc3c(OC)c2cc1OC [Compound 4, kokusaginine]",–,–,–,–,–,–,–,–,44.6 ± 3.92,62 ± 7.24,> 154,> 154,> 154,90.8 ± 8.86,120 ± 13.1,49.8 ± 5.04,70.1 ± 6.4,> 154,–
"COc1c2cc3c(cc2nc2occc12)OCO3 [Compound 3, maculine]",–,–,–,–,–,–,–,–,63.1 ± 3.75,> 165,> 165,> 165,> 165,> 165,> 165,89.1 ± 6.22,> 165,> 165,–
